According to ChEMBL document CHEMBL5661943, “ASAP - In vitro antiviral effect” (2024):
Where “and” joins values, the source holds several entries; their conditions need not be identical. Equal entries are not always repeated.

Key:
Zika virus [1] = assay: EC50 is reported via analysis of immunofluorescence staining. The assay has been performed by Icahn School of Medicine at Mount Sinai.; assay type: functional, organism-based, Chlorocebus sabaeus, VeroE6/TMPRSS2; conditions: for EC90: P-gp concentration 2 uM, P-gp inhibitor Elacidar
dengue virus type 2 [2] = assay: (§1) Functional immunofluorescence assay to measure dose dependent changes in antiviral-drug inhibitory efficacy against Dengue virus type 2 Thailand/16681/84 in Vero E6/TMPRSS2 cells (cotreated with P-gp inhibitor, Elacridar). Cells are treated with antiviral candidates that are serially diluted, following infection, cells are fixed. EC50 is reported via analysis of immunofluorescence staining. The assay has been performed by Icahn School of Medicine at Mount Sinai.; assay type: organism-based, Chlorocebus sabaeus, VeroE6/TMPRSS2; conditions: Dengue virus; for EC90: P-gp concentration 2 uM, P-gp inhibitor Elacidar
dengue virus type 2 [3] = assay: as §1, with “cells.” for “cells (cotreated with P-gp inhibitor, Elacridar).”; assay type: organism-based, Chlorocebus sabaeus; conditions: for EC50: VeroE6/TMPRSS2
dengue virus type 2 [4] = assay: Functional assay to measure dose dependent changes in antiviral-drug inhibitory efficacy against Dengue virus type 2 New Guinea C in Vero E6 miRFP670 cells (cotreated with P-gp inhibitor, CP100356). Cells are treated with antiviral candidates that are serially diluted, following infection, cells are fixed. EC50 is reported via analysis of fluorescence intensity using high-content imager. The …; assay type: organism-based, Chlorocebus sabaeus, Vero C1008; conditions: Dengue virus, Vero C1008
Zika virus [5] = assay: as §1, with “Zika” for “Dengue”, “PRVABC59” for “type 2 Thailand/16681/84”, “cells.” for “cells (cotreated with P-gp inhibitor, Elacridar).”; assay type: organism-based, Chlorocebus sabaeus; conditions: for EC50: VeroE6/TMPRSS2

## CCc1cc(C(=O)Nc2cccc(CN)c2)sc1-c1ccc(Cl)cc1
Zika virus [1]; Zika virus, VeroE6/TMPRSS2
  EC50: > 50 µM
Zika virus [1]; Zika virus, VeroE6/TMPRSS2, Baseline response 0 %, Hill slope -0.283, Maximum measured 157.581 %, Maximum response 100 %, Minimum measured 60.948 %, R squared 0.14
  EC90: > 50 µM
Dengue virus type 2 [2]; VeroE6/TMPRSS2
  EC50: 1.48 µM
Dengue virus type 2 [2]; VeroE6/TMPRSS2, Baseline response 0 %, Hill slope -0.734, Maximum measured 115.481 %, Maximum response 100 %, Minimum measured 26.383 %, R squared 0.805
  EC90: > 5.56 µM
Dengue virus type 2 [3]
  EC50: 0.04 µM
Dengue virus type 2 [3]; VeroE6/TMPRSS2, Baseline response 0 %, EC90 CI (lower) 0 uM, EC90 CI (upper) […] uM, Hill slope -0.657, Maximum measured 73.173 %, Maximum response 100 %, Minimum measured 2.32 %, R squared 0.658
  EC90: 1.14 µM
Dengue virus type 2 [4]
  EC50: 7.88 µM
Dengue virus type 2 [4]; Baseline response 0 %, EC90 CI (lower) 5.869 uM, EC90 CI (upper) 6.978 uM, Hill slope -10.543, Maximum measured 99.815 %, Maximum response 100 %, Minimum measured 0.348 %, P-gp concentration 500 nM, R squared 0.992, P-gp inhibitor CP100356
  EC90: 9.71 µM

## O=C(O)c1cc(Cl)ccc1NS(=O)(=O)c1ccc(Oc2ccccc2Cl)cc1
Zika virus [5]
  EC50: > 50 µM
Zika virus [5]; VeroE6/TMPRSS2, Baseline response 0 %, Hill slope 0.308, Maximum measured 143.489 %, Maximum response 100 %, Minimum measured 67.888 %, R squared 0.041
  EC90: > 50 µM
Dengue virus type 2 [3]
  EC50: < 0.023 µM
Dengue virus type 2 [3]; VeroE6/TMPRSS2, Baseline response 0 %, Hill slope -0.289, Maximum measured 50.892 %, Maximum response 100 %, Minimum measured 16.572 %, R squared 0.294
  EC90: > 5.56 µM

## Cc1cc(CN)cc(NC(=O)c2cc(Cl)cc(NC(=O)OCc3ccccc3)c2)c1
Zika virus [1]; Baseline response 0 %, Hill slope -0.823, Maximum measured 127.605 %, Maximum response 100 %, Minimum measured 3.711 %, R squared 0.613
  EC90: > 5.56 µM
Zika virus [1]; Zika virus, VeroE6/TMPRSS2, Baseline response 0 %, Hill slope -1.09, Maximum measured 145.706 %, Maximum response 100 %, Minimum measured 48.4 %, R squared 0.191
  EC90: > 3.33 µM
Zika virus [1]; veroe6/tmprss2
  EC50: 3.14 µM and 0.66 µM
Dengue virus type 2 [2]; VeroE6/TMPRSS2
  EC50: > 1.85 µM
Dengue virus type 2 [2]; VeroE6/TMPRSS2, Maximum measured 126.603 %, Minimum measured 82.463 %
  EC90: > 1.85 µM
Zika virus [5]
  EC50: > 50 µM
Zika virus [5]; VeroE6/TMPRSS2, Maximum measured 728.77 %, Minimum measured 52.412 %
  EC90: > 50 µM
Dengue virus type 2 [3]
  EC50: > 5.56 µM
Dengue virus type 2 [3]; VeroE6/TMPRSS2, Maximum measured 117.926 %, Minimum measured 57.292 %
  EC90: > 5.56 µM

## Cc1cc(-c2ccc([C@@H](NC(=O)OCc3ccccc3)C(=O)Nc3cccc(CN)c3)cc2)cs1
Zika virus [1]; Zika virus, VeroE6/TMPRSS2
  EC50: > 50 µM
Zika virus [1]; Zika virus, VeroE6/TMPRSS2, Maximum measured 84.809 %, Minimum measured 8.553 %
  EC90: > 50 µM
Dengue virus type 2 [2]; VeroE6/TMPRSS2
  EC50: > 5.56 µM
Dengue virus type 2 [2]; VeroE6/TMPRSS2, Maximum measured 25.792 %, Minimum measured 7.149 %
  EC90: > 5.56 µM
Zika virus [5]
  EC50: > 50 µM
Zika virus [5]; VeroE6/TMPRSS2, Maximum measured 207.969 %, Minimum measured 85.523 %
  EC90: > 50 µM
Dengue virus type 2 [3]
  EC50: 0.145 µM
Dengue virus type 2 [3]; VeroE6/TMPRSS2, Baseline response 0 %, Hill slope -0.322, Maximum measured 78.243 %, Maximum response 100 %, Minimum measured 15.352 %, R squared 0.327
  EC90: > 5.56 µM

## O=C(Nc1cc(Cl)cc(C(=O)Nc2cccc(-c3nnn[nH]3)c2)c1)OCc1ccccc1
Zika virus [1]; Zika virus, VeroE6/TMPRSS2
  EC50: 2.68 µM
Zika virus [1]; Zika virus, VeroE6/TMPRSS2, Baseline response 0 %, Hill slope -0.321, Maximum measured 94.477 %, Maximum response 100 %, Minimum measured 40.195 %, R squared 0.392
  EC90: > 16.7 µM
Dengue virus type 2 [2]; VeroE6/TMPRSS2
  EC50: 48.9 µM
Dengue virus type 2 [2]; VeroE6/TMPRSS2, Baseline response 0 %, Hill slope -12.435, Maximum measured 130.492 %, Maximum response 60 %, Minimum measured 25.847 %, R squared 0.033
  EC90: > 50 µM
Zika virus [5]
  EC50: > 50 µM
Zika virus [5]; VeroE6/TMPRSS2, Maximum measured 198.65 %, Minimum measured 79.352 %
  EC90: > 50 µM
